# According to US9938261B2, “Heterocyclic compounds and methods of use thereof” (AMBIT BIOSCIENCES CORPORATION, priority 2011, dated 2018):
# Where a name gives a salt, the structure may show the parent alone. Read-outs that look alike come from different tables or passages of the source.
# Legend:
# FLT3 = biological target: T1, FLT3 (Homo sapiens, UniProt P36888); assay: Competition binding assay, FLT3 Kd
# T1 construct: made in house
# T1 sequence (P36888 27-993): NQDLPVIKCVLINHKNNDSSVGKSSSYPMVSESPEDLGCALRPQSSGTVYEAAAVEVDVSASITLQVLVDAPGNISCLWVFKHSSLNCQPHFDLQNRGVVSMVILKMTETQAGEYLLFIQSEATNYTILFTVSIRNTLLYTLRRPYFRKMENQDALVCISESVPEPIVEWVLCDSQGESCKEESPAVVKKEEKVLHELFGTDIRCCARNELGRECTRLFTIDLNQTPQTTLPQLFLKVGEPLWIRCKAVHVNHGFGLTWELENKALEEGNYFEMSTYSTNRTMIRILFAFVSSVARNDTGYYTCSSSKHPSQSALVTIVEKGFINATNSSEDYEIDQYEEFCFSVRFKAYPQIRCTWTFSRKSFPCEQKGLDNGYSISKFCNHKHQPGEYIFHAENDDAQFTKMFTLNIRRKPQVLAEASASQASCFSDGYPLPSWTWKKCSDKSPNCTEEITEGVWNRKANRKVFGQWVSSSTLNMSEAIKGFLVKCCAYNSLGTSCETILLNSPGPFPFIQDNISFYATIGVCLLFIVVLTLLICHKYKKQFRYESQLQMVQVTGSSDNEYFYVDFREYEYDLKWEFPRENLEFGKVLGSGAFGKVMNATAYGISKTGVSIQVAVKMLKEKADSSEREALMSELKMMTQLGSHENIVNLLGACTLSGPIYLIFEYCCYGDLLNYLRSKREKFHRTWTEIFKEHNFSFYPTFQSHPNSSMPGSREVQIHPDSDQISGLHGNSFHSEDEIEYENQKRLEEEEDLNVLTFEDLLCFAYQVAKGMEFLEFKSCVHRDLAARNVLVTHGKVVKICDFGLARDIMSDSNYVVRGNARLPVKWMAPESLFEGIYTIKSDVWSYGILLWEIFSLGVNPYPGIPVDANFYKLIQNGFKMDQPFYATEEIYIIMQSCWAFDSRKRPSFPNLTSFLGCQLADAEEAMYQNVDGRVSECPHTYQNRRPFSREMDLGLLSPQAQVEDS
# Summary of the method: (§1)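 Compound displacement of kinase from bead-immobilized ligand is measured by qPCR after 1 h equilibration at room temperature. Kinases are T7 phage fusions or DNA-tagged HEK-293 products.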
# CSF1R [1] = biological target: T2, CSF1R (Homo sapiens, UniProt P07333); assay: Competition binding assay, CSF1R Kd; design: made in house
# Summary of the method: as §1
# M-NFS-60 cells = assay: M-NFS-60 cell proliferation assay (Alamar Blue); format: cell-based, mouse; settings: read-out: CSF1R M-NFS-60 CTB:IC50
# Summary of the method: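 Alamar Blue reduction (3 h; 560/590 nm) measured viability after 72 h, 37 °C treatment with nine half-log compound concentrations at 0.5% DMSO. Cells: M-CSF-dependent (20 ng/mL) murine M-NFS-60 in RPMI plus 10% FBS. IC50s, averaged from duplicates, reflect half-maximal inhibition of proliferation relative to control.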
# CSF1R [2] = biological target: T2, CSF1R; assay: HEK293 CSF1R phosphorylation MSD assay; format: cell-based; design: expressed in transfected cells; host or cells: HEK293; settings: read-out: HEK293 pCSF1R M-CSF MSD:IC50
# Summary of the method: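 Ligand-induced CSF1R autophosphorylation was measured by MSD sandwich assay: CSF1R-FKBP from lysates captured via FK506, anti-phosphotyrosine readout. Cells were exposed to compound for 2 h (9-point, half-log, 0.5% DMSO) before 5 min 50 ng/mL M-CSF. Reported IC50 is the mean of duplicate-plate IC50s relative to DMSO control.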
# PDGFRβ = biological target: T3, PDGFRβ (Homo sapiens, UniProt P09619); assay: Competition binding assay, PDGFRβ Kd
# T3 construct: made in house
# Summary of the method: as §1
# KIT = biological target: T4, KIT (Homo sapiens, UniProt P10721); assay: Competition binding assay, KIT Kd
# T4 construct: made in house
# Summary of the method: as §1
# [3] = Mus musculus, 72 hours incubation, M-CSF 20 ng/mL
# [4] = 2 h compound, human M-CSF 50 ng/mL for 5 min
# T4 sequence (P10721 26-976): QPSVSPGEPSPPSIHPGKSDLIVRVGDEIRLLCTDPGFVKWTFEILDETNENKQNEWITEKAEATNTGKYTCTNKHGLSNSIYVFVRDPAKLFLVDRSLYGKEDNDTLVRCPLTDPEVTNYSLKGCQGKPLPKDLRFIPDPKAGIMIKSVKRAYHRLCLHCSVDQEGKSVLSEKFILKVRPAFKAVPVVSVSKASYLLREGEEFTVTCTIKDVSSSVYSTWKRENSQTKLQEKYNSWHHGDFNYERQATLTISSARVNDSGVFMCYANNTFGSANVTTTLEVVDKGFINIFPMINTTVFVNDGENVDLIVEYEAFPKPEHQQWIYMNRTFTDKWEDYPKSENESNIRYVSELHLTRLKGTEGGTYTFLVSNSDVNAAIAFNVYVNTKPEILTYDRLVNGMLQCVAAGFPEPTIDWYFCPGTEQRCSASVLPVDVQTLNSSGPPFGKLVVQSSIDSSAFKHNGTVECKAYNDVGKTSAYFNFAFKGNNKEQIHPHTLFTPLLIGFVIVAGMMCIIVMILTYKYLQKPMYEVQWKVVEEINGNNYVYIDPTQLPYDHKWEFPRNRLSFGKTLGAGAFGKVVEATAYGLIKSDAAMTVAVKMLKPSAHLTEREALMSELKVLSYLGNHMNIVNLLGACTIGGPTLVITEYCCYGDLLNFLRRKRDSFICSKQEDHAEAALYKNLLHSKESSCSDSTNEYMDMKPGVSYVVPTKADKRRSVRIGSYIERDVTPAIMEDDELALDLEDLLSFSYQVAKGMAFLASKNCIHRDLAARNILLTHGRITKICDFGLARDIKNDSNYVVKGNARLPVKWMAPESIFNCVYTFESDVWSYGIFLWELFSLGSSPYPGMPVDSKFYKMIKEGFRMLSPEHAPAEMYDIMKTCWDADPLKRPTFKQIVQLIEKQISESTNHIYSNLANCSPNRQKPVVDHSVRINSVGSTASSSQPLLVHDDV
# T2 sequence (P07333 20-972): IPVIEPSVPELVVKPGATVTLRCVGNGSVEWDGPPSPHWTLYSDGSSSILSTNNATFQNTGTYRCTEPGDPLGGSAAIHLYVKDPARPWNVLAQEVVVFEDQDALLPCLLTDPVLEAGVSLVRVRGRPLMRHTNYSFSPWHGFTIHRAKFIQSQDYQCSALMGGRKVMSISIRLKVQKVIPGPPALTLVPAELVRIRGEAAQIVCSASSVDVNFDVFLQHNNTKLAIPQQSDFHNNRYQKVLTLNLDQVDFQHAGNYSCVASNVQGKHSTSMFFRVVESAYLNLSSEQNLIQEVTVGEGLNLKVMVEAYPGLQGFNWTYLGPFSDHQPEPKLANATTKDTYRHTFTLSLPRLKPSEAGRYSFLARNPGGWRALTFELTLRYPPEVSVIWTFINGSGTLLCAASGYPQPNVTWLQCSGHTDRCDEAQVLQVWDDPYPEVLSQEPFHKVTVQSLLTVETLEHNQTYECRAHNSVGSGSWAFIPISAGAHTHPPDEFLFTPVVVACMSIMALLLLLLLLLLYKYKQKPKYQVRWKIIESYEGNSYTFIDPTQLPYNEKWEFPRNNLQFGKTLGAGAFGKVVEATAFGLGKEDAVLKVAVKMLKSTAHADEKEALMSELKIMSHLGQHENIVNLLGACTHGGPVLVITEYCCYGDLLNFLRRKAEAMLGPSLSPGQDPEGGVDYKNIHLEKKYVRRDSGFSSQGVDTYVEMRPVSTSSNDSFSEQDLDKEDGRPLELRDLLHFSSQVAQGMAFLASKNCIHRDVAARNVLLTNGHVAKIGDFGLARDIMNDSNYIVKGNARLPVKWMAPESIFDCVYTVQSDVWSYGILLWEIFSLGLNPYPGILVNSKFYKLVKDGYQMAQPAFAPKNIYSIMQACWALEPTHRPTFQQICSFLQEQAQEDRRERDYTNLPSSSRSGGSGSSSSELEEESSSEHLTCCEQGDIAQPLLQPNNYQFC
# T3 sequence (P09619 33-1106): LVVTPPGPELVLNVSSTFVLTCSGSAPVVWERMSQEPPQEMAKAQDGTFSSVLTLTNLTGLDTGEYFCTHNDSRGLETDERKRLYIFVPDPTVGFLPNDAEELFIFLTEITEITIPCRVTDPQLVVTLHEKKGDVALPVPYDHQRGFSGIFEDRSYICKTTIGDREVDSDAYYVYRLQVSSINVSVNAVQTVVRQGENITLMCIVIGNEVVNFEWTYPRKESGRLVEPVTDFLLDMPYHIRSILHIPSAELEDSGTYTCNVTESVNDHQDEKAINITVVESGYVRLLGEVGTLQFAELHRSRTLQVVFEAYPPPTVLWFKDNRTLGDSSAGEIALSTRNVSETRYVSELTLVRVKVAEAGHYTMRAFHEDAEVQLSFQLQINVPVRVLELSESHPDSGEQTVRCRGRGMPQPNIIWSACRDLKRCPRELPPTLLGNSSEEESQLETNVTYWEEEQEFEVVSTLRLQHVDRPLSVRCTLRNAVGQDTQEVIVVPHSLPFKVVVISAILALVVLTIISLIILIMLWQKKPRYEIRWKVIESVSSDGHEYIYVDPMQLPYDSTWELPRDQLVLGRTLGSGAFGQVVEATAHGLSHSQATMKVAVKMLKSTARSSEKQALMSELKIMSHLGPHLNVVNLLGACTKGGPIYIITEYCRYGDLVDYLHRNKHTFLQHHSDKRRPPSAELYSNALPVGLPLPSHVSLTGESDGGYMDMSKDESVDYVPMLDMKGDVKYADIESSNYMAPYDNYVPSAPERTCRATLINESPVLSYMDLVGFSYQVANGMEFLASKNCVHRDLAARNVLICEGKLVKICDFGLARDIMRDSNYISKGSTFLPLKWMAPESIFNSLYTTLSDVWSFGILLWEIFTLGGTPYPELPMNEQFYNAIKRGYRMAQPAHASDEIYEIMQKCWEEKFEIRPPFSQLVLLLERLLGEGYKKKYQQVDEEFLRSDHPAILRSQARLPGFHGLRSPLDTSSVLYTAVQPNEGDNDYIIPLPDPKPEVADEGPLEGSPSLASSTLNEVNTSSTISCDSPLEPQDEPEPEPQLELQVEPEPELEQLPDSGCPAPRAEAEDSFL
Compound,Kd (FLT3) [nM],Kd (CSF1R [1]) [nM],IC50 (M-NFS-60 cells; [3]) [nM],IC50 (CSF1R [2]; [4]) [nM],Kd (PDGFRβ) [nM],Kd (KIT) [nM],"IC50 (M-NFS-60 cells; 72 hours incubation, M-CSF 20 ng/mL) [nM]",Kd (FLT3; competition binding) [nM],Kd (CSF1R [1]; competition binding) [nM],"IC50 (M-NFS-60 cells; Mus musculus, M-NFS-60 cell proliferation) [nM]","IC50 (CSF1R [2]; HEK293 cells, M-CSF stimulated CSF1R phosphorylation, MSD) [nM]",Kd (PDGFRβ; competition binding) [nM],Kd (KIT; competition binding) [nM]
"CCOc1ccccc1Nc1nc2ccc(Cn3cnc4cc(OC)c(OC)cc43)cc2s1 [Example 27, 6-((5,6-dimethoxy-1H-benzo[d]imidazol-1-yl)methyl)-N-(2-ethoxyphenyl)benzo[d]thiazol-2-amine]",1000 to 5000,5 to 20,50 to 400,50 to 200,50 to 500,100 to 500,,,,,,,
"COc1cc2ncn(Cc3ccc4nc(NC5CCOC5)sc4c3)c2cc1OC (racemic) [Example 25, (R,S)-6-((5,6-dimethoxy-1H-benzo[d]imidazol-1-yl)methyl)-N-(tetrahydrofuran-3-yl)benzo[d]thiazol-2-amine acetic acid]",> 5000,> 50,> 1500,> 500,> 2000,> 2000,,,,,,,
"COc1cc2ncn(Cc3ccc4nc(NCc5ccccc5)sc4c3)c2cc1OC [Example 13, N-benzyl-6-((5,6-dimethoxy-1H-benzo[d]imidazol-1-yl)methyl)benzo[d]thiazol-2-amine]",1000 to 5000,5 to 20,400 to 1500,50 to 200,50 to 500,100 to 500,,,,,,,
"COc1ccc2c(c1)ncn2Cc1ccc2nc(N[C@@H]3CCCC[C@H]3O)sc2c1 [Example 68, (1R,2R)-2-((6-((5-methoxy-1H-benzo[d]imidazol-1-yl)methyl)benzo[d]thiazol-2-yl)amino)cyclohexanol]",1000 to 5000,5 to 20,≤ 50,≤ 50,50 to 500,100 to 500,,,,,,,
"N=C(NO)c1cnc2c(c1)ncn2Cc1ccc2nc(N[C@@H]3CCCC[C@H]3O)sc2c1 [Example 90, N-hydroxy-3-((2-(((1R,2R)-2-hydroxycyclohexyl)amino)benzo[d]thiazol-6-yl)methyl)-3H-imidazo[4,5-b]pyridine-6-carboximidamide]",1000 to 5000,5 to 20,50 to 400,50 to 200,50 to 500,100 to 500,,,,,,,
"(1R,2R)-1-((6-((4-(1-methyl-1H-pyrazol-4-yl)-1H-imidazol-1-yl)methyl)benzo[d]thiazol-2-yl)amino)-2,3-dihydro-1H-inden-2-ol or (1R,2R)-1-((6-((5-(1-methyl-1H-pyrazol-4-yl)-1H-imidazol-1-yl)methyl)benzo[d]thiazol-2-yl)amino)-2,3-dihydro-1H-inden-2-ol [Example 32]",200 to 1000,> 50,,> 500,> 2000,> 2000,> 1500,,,,,,
"O[C@@H]1CCCC[C@H]1Nc1nc2ccc(Cn3cnc4cc(F)cnc43)cc2s1 [Example 70, (1R,2R)-2-((6-((6-fluoro-3H-imidazo[4,5-b]pyridin-3-yl)methyl)benzo[d]thiazol-2-yl)amino)cyclohexanol]",1000 to 5000,≤ 5,50 to 400,≤ 50,50 to 500,≤ 100,,,,,,,
"COc1cc2ncn(Cc3ccc4nc(N[C@@H]5CCCCC5O)sc4c3)c2cc1OC (stereo in doubt) [Example 2, (1R,2R)-2-((6-((5,6-dimethoxy-1H-benzo[d]imidazol-1-yl)methyl)benzo[d]thiazol-2-yl)amino)cyclohexanol]",200 to 1000,5 to 20,50 to 400,≤ 50,50 to 500,100 to 500,,,,,,,
"O[C@@H]1CCCC[C@H]1Nc1nc2ccc(Cn3cnc4cnccc43)cc2s1 [Example 72, (1R,2R)-2-((6-((1H-imidazo[4,5-c]pyridin-1-yl)methyl)benzo[d]thiazol-2-yl)amino)cyclohexanol]",> 5000,5 to 20,400 to 1500,50 to 200,500 to 2000,> 2000,,,,,,,
"CN(C)CC(=O)c1cnc2c(c1)ncn2Cc1ccc2nc(N[C@@H]3CCCC[C@H]3O)sc2c1 [Example 116, 2-(dimethylamino)-1-(3-((2-(((1R,2R)-2-hydroxycyclohexyl)amino)benzo[d]thiazol-6-yl)methyl)-3H-imidazo[4,5-b]pyridine-6-yl)ethanone acetate salt]",,,,,,,,200 to 1000,5 to 20,> 1500,50 to 200,50 to 500,100 to 500
"O[C@@H]1Cc2ccccc2[C@H]1Nc1nc2ccc(Cn3cnc4cncnc43)cc2s1 [Example 95, (1R,2R)-1-((6-((9H-purin-9-yl)methyl)benzo[d]thiazol-2-yl)amino)-2,3-dihydro-1H-inden-2-ol]",> 5000,≤ 5,50 to 400,50 to 200,≤ 50,500 to 2000,,,,,,,
"COc1cc2ncn(Cc3ccc4nc(N[C@@H]5CCCC5O)sc4c3)c2cc1OC (stereo in doubt) [Example 20, (1R,2R)-2-((6-((5,6-dimethoxy-1H-benzo[d]imidazol-1-yl)methyl)benzo[d]thiazol-2-yl)amino)cyclopentanol]",1000 to 5000,20 to 50,> 1500,200 to 500,> 2000,> 2000,,,,,,,
"O[C@@H]1Cc2ccccc2[C@H]1Nc1nc2ccc(Cn3cnc4cc(F)cnc43)cc2s1 [Example 69, (1R,2R)-1-((6-((6-fluoro-3H-imidazo[4,5-b]pyridin-3-yl)methyl)benzo[d]thiazol-2-yl)amino)-2,3-dihydro-1H-inden-2-ol]",1000 to 5000,≤ 5,50 to 400,50 to 200,≤ 50,100 to 500,,,,,,,
"COc1ccccc1Nc1nc2ccc(Cn3cnc4cc(OC)c(OC)cc43)cc2s1 [Example 30, 6-((5,6-dimethoxy-1H-benzo[d]imidazol-1-yl)methyl)-N-(2-methoxyphenyl)benzo[d]thiazol-2-amine]",1000 to 5000,≤ 5,50 to 400,50 to 200,50 to 500,≤ 100,,,,,,,
"COc1cc2ncn(Cc3ccc4nc(NC5CCCCC5)sc4c3)c2cc1OC [Example 18, N-cyclohexyl-6-((5,6-dimethoxy-1H-benzo[d]imidazol-1-yl)methyl)benzo[d]thiazol-2-amine]",≤ 200,≤ 5,50 to 400,≤ 50,≤ 50,≤ 100,,,,,,,
"COc1cc2ncn(Cc3ccc4nc(Nc5ccccc5O)sc4c3)c2cc1OC [Example 31, 2-((6-((5,6-dimethoxy-1H-benzo[d]imidazol-1-yl)methyl)benzo[d]thiazol-2-yl)amino)phenol]",1000 to 5000,≤ 5,> 1500,> 500,50 to 500,100 to 500,,,,,,,
"O[C@H]1CCCCC1Nc1nc2ccc(Cn3cnc4ccccc43)cc2s1 (stereo in doubt) [Example 7, (1S,2S)-2-((6-((1H-benzo[d]imidazol-1-yl)methyl)benzo[d]thiazol-2-yl)amino)cyclohexanol]",200 to 1000,5 to 20,400 to 1500,50 to 200,≤ 50,100 to 500,,,,,,,
